Experimental data taken from patent US20230167406A1, “COMPOSITIONS AND METHODS OF PROMOTING MYELINATION” (The Children's Medical Center Corporation, priority 2020, published 2023).
“Also recorded” adds a separate entry of the source. Counter-ions that a name gives are not always drawn.

Columns and labels:
[1] = test system: activated microglia in injured optic nerves; test: Microglia depletion in injured optic nerves (CD68 immunoreactivity); assay type: in vivo, mouse; conditions: systemic application (food chow)
Source text: FIG. 3G comprises representative images of optic nerves, from adult mice 2 weeks after unilateral optic nerve crush injury and with or without PLX3397 treatment, stained with antibodies against CD68. Scale bar: 40 μm.
FIG. 3H is a graph quantifying the CD68 immunoreactivity signal. […] mice per group. Scale bar: 40 μm. *, **, *** p<0.05, 0.01, 0.001, respectively.
(§1) Thus, it appears that microglia activation is required for injury-induced OPC proliferation.
For PDGFRα-CreER mice, Tamoxifen (100 mg/kg, p.o.) was administered for 5 days right before optic nerve crush. For OPC proliferation assays, BrdU (100 mg/kg, i.p.) was injected at 3 hours before sample collection. […]
(§2) Cryosections (12-μm thick) were permeabilized and blocked in blocking buffer (0.5% Triton X-100 and 5% normal goat serum in PBS) for 1 h at room temperature and overlaid with primary antibodies overnight at 4° C. […] For each biological sample, 3-5 sections of each optic nerve were imaged under 10× or 20×objectives for quantification. Positive cell numbers were then quantified manually using the Plugins/Analyze/Cell Counter function in ImageJ software. For fluorescent intensity analysis, the images were first converted to 8-bit depth in ImageJ software and then, the mean intensity value was calculated by the build-in function: Analyze/Measure.

[2] = test system: regenerated axons in injured optic nerves; test: Electron microscopy of myelination of regenerated axons in injured optic nerves; assay type: in vivo, mouse; conditions: 4 weeks after injury; for regenerated axons that became myelinated: Montelukast dpi1-28 and/or PLX3397 dpi15-28
Description: To do this, AAVs expressing osteopontin/IGF1/CNTF were injected into the vitreous bodies of PDGFRα-CreER:iRTM mice to activate the intrinsic regenerative ability of RGCs and optic nerve injury was performed in 2 weeks. These mice were then treated with Montelukast (for 4 weeks from dpi1 to dpi28) and/or PLX3397 (for two weeks during dpi 15-28).
Mice were perfused with 4% paraformaldehyde with 2.5% glutaraldehyde in 0.1 M sodium cacodylate buffer, pH 7.2. Optic nerves were dissected and fixed in the same fixative solution overnight. Samples were then processed by the Harvard EM core based on the following procedure: nerves were rinsed in PBS, postfixed in 1% OsO4 in PBS for 1 h, dehydrated in a graded ethanol series, infiltrated with propylene oxide, and embedded in Epon. Semithin sections were stained with toluidine blue, and ultrathin sections were stained with lead citrate. Ultrathin sections were taken under JEOL 1200EX-80 kV electron microscope. The number of myelinated axons per nerve was analyzed in ultrathin sections at magnification 3,000× to 20,000×.

[3] = test system: OPCs in injured optic nerves; test: OPC proliferation by BrdU/GFP/Olig2 labeling in PDGFRα-H2B-GFP mice; assay type: in vivo, mouse; conditions: PLX3397 from 7 days before crush, examined 14 days after injury
Description: FIG. 3I is a schematic of experiments to assess OPC proliferation with the treatment of PLX3397 (PLX) or its vehicle control (Vec) in PDGFRα-H2B-GFP mice. […]
as §1
For PDGFRα-CreER mice, Tamoxifen (100 mg/kg, p.o.) was administered for 5 days right before optic nerve crush. For OPC proliferation assays, BrdU (100 mg/kg, i.p.) was injected at 3 hours before sample collection. For drug screening assays, BrdU was injected daily from day 4 to day 10 post optic nerve crush. Each compound or the corresponding Vehicle was administered once daily for 4 weeks started from day 1 post optic nerve crush (Table 2). […]
as §2

[4] = test system: OPCs and their progenies in injured optic nerves; test: OPC lineage tracing (CC1/Oligo1 staining of RTM+ cells) in PDGFRα-CreER/iRTM mice after optic nerve crush; assay type: in vivo, mouse
Source text: To trace the progenies of OPCs, a different reporter mouse line was utilized, namely PDGFRα-CreER (Kang et al., Neuron 68, 668-681, 2010) crossed with Rosa26-STOP-Tomato mice, or PDGFRα-CreER/iRTM mice (Arenkiel et al., 2011). Upon tamoxifen administration, Cre expression is induced in PDGFRα^+ OPCs, leading to RTM expression not only in these OPCs but also their differentiated progenies. To monitor their differentiation, two well-documented markers were used, namely CC1 and Oligo1. CC1 is a marker for all differentiated cells from OPCs. The translocation of Oligo1 from the nucleus to the cytoplasm has been implicated as a hallmark of late differentiation into myelinating oligodendrocytes. Therefore, with these immunohistochemistry assessments, these cells could be separated into three stages: un-differentiated OPCs (CC1^− and nuclear Oligo1), early differentiated OPCs (CC1+ and nuclear Oligo1) and mature oligodendrocytes (CC1^+ and cytoplasmic Oligo1) (FIG. 111).
Immediately prior to optic nerve crush, tamoxifen was injected into PDGFRα-CreER/iRTM mice in order to label pre-existing OPCs (Young et al., Neuron 77, 873-885, 2013). Then, the fate of labeled OPCs was examined by immunohistochemistry with anti-CC1 and anti-Oligo1 at 4 weeks after injury (FIG. 1I).
As the majority of OPC proliferation occurs in the first week after injury (FIG. 1), it was hypothesized that a delayed PLX3397 treatment at 2-4 weeks after injury could bypass their inhibition on proliferation, permitting assessment of its effects on OPC differentiation. To do this, a separate experiment was performed in which PLX3397 was administered from 2 to 4 weeks after injury in PDGFRα-CreER:iRTM mice as used in FIGS. 1G-1M, 3L.
For PDGFRα-CreER mice, Tamoxifen (100 mg/kg, p.o.) was administered for 5 days right before optic nerve crush. […] Pexidartinib (PLX 3397) was mixed in food chow at 290 mg/kg by LabDiet laboratory animal nutrition.

[5] = test system: proliferating OPCs in injured optic nerves; test: In vivo compound screening for OPC differentiation (BrdU+/CC1+ cells) after optic nerve crush; parameters: species or system mouse; conditions: wild type C57BL/6 mice; for number of BrdU+ and CC1+ double positive cells (OPC differentiation) in injured optic nerves: compound once daily for 4 weeks from day 1 post optic nerve crush, BrdU daily days 4-10; for pro-differentiation effect compared with the other screened compounds: 4 week treatment after optic nerve crush
[6] = test system: OPCs distal to the optic nerve injury; test: TNFα inhibitor treatment after optic nerve injury (BrdU/CC1/Olig2 staining, lineage reporter mice); assay type: in vivo, mouse
Source text: The morphology is very distinct from other treatments, such as GPR17 antagonist treatment (FIG. 5E).

[7] = PDGFRα-CreER:iRTM mice, delayed treatment from 2 to 4 weeks after injury
[8] = PDGFRα-CreER/iRTM mice, Montelukast treatment for 4 weeks

Structure (SMILES): FC(F)(F)c1ccc(CNc2ccc(Cc3c[nH]c4ncc(Cl)cc34)cn2)cn1 [PLX3397, Pexidartinib]
- depletion of microglia in vivo (CD68) [1]: depleted; also recorded: specifically deplete microglia
- regenerated axons that became myelinated [2]: about 20%
- total numbers of OPCs [3]: profoundly reduced
- CC1+ cells [4, 7]: increased
- proportion of CC1+RTM+ cells expressing cytoplasmic Oligo1 [4, 7]: 78%

Structure (SMILES): O=C(O)CCC(=O)O.O=C(O[C@H]1CN2CCC1CC2)N1CCc2ccccc2[C@@H]1c1ccccc1 [Solifenacin, Solifenacin succinate]
- number of BrdU+ and CC1+ double positive cells (OPC differentiation) in injured optic nerves [5]: significantly increased
- number of BrdU+ and CC1+ double positive cells (OPC differentiation) in injured optic nerves ([5]; listed as solifenacin): significantly increased OPC differentiation

Structure (SMILES): O=C(Nc1cccc2c(=O)cc(-c3nn[nH]n3)oc12)c1ccc(OCCCCc2ccccc2)cc1 [Pranlukast]
- number of BrdU+ and CC1+ double positive cells (OPC differentiation) in injured optic nerves [5]: increased OPC differentiation but did not reach statistical significance

Structure (SMILES): O=C1CCC(N2C(=O)c3ccccc3C2=O)C(=O)N1 (stereo not shown) [Thalidomide]
- differentiation of OPCs in lineage reporter mice ([6]; PDGFRα-CreER/iRTM lineage reporter mice, 2 to 4 weeks post-injury): OPCs differentiated into mature myelinating oligodendrocytes
- BrdU+/CC1+/Olig2+ cells distal to the injury ([6]; administered from 2 weeks to 4 weeks post-injury): robust increase

Structure (SMILES): CN1CCC[C@@H]1CCO[C@](C)(c1ccccc1)c1ccc(Cl)cc1.O=C(O)/C=C/C(=O)O [clemastine, Clemastine fumarate]
- number of BrdU+ and CC1+ double positive cells (OPC differentiation) in injured optic nerves [5]: increased CC1^+ cells, albeit the increase did not reach statistical differences

Structure (SMILES): CN1C2CCC1CC(OC(c1ccccc1)c1ccccc1)C2 (stereo not shown) [benztropine mesylate, Benztropine mesylate]
- number of BrdU+ and CC1+ double positive cells (OPC differentiation) in injured optic nerves [5]: significantly increased
- number of BrdU+ and CC1+ double positive cells (OPC differentiation) in injured optic nerves ([5]; listed as benztropine): significantly increased OPC differentiation

Structure (SMILES): C=C(c1ccc(C(=O)O)cc1)c1cc2c(cc1C)C(C)(C)CCC2(C)C [Bexarotene]
- number of BrdU+ and CC1+ double positive cells (OPC differentiation) in injured optic nerves [5]: increased CC1^+ cells, albeit the increase did not reach statistical differences

Structure (SMILES): CC(C)(O)c1ccccc1CC[C@@H](SCC1(CC(=O)O)CC1)c1cccc(/C=C/c2ccc3ccc(Cl)cc3n2)c1 [Montelukast]
- pro-differentiation effect compared with the other screened compounds [5]: strongest effect
- pro-differentiation effect compared with the other screened compounds ([5]; listed as montelukast): strongest
- number of BrdU+ and CC1+ double positive cells (OPC differentiation) in injured optic nerves [5]: significantly increased
- thickness of myelin structures [2]: much thinner than those after PLX treatment
- regenerated axons that became myelinated [2]: about 20%
- proportion of CC1+RTM+ cells with nuclear, but not cytoplasmic, Oligo1 immunoreactivity [4, 8]: 77%
- total RTM+ cell numbers [4, 8]: increased
- proportion of RFP+ (RTM+) cells that became CC1+ ([4]; PDGFRα-CreER/iRTM mice, Montelukast treatment for 4 weeks after optic nerve injury, 12% in vehicle-treated mice): 64%
